The values below are quoted from earlier work in article PMC8679591, “FAPI-74 PET/CT Using Either ^18F-AlF or Cold-Kit ^68Ga Labeling: Biodistribution, Radiation Dosimetry, and Tumor Delineation in Lung Cancer Patients” (Journal of Nuclear Medicine, 2021).

Consider `N[C@@H](C[C@H](CCC[18F])C(=O)O)C(=O)O` [(S)-4-(3-^18F-fluoropropyl)-L-glutamic acid], for which the Effective dose is on record as 0.032 mSv/MBq. In the case of `N[C@@H](Cc1ccc(OCC[18F])cc1)C(=O)O` [O-(2-^18F-fluoroethyl)-L-tyrosine], the Effective dose is on record as 0.016 mSv/MBq. With `Cc1cn([C@H]2C[C@H]([18F])[C@@H](CO)O2)c(=O)[nH]c1=O` [^18F-3′-deoxy-3′-^18F-fluorothymidine, 3′-deoxy-3′-^18F-fluorothymidine], the Effective dose is recorded as 0.028 mSv/MBq. With `O=C(O)CC[C@H](NC(=O)N[C@@H](CCCCNC(=O)[C@H](Cc1ccc2ccccc2c1)NC(=O)c1ccc(CNC(=O)[C@H](CCC(=O)O)NC(=O)[C@H](CCC(=O)O)NC(=O)c2ccc([18F])nc2)cc1)C(=O)O)C(=O)O` [^18F-PSMA-1007], the Effective dose is listed as 0.022 mSv/MBq.

In the case of `C[N+](C)(CF)CCO` [^18F-fluorocholine], the Effective dose is given as 0.031 mSv/MBq. With `O=[N+]([O-])c1nccn1CC(O)C[18F]` (centres unmarked) [^18F-fluoromisonidazole], the Effective dose is given as 0.013 mSv/MBq. `CNc1ccc(/C=C/c2ccc(OCCOCCOCC[18F])cc2)cc1` [^18F-flurbetaben]: the Effective dose was 0.015 mSv/MBq. Consider `CC(C)(C)n1ncc(OCc2ccc(COCC[18F])cc2)c(Cl)c1=O` [^18F-flurpiridaz], for which the Effective dose is on record as 0.019 mSv/MBq. As for `N#C[C@@H]1CCCN1C(=O)CNC(=O)c1ccnc2ccc(OCCCN3CCN(C(=O)CN4CCN(CC(=O)O)CCN(CC(=O)O)CCN(CC(=O)O)CC4)CC3)cc12` [^68Ga-FAPI-2, metal not drawn], the Effective dose is recorded as 0.008–0.015 mSv/MBq. For `N#C[C@@H]1CC(F)(F)CN1C(=O)CNC(=O)c1ccnc2ccc(OCCCN3CCN(C(=O)CN4CCN(CC(=O)O)CCN(CC(=O)O)CCN(CC(=O)O)CC4)CC3)cc12` [^68Ga-FAPI-4, metal not drawn], the Effective dose was 0.008–0.015 mSv/MBq. Turning to `O=C([O-])CN(CCN(CC(=O)[O-])Cc1cc(CCC(=O)NCCCCCC(=O)NCCCC[C@H](NC(=O)N[C@@H](CCC(=O)O)C(=O)O)C(=O)O)ccc1[O-])Cc1cc(CCC(=O)O)ccc1[O-].[68Ga+3].[OH3+]` [^68Ga-PSMA-11], the Effective dose was 0.023 mSv/MBq.
